Laboratory results reported in article PMC13195669, “GPR3 Ligands Discovered through Combined Virtual and Conformational Biosensor-Based Screening” (Journal of the American Chemical Society, 2026).

Assays:
S1P receptor 1 (S1PR1) = molecular target: T1, S1P receptor 1 (S1PR1) (Homo sapiens, UniProt P21453); assay: cAMP GloSensor 22F, agonist-stimulated S1PR1; format: cell-based; conditions: preincubation with 100 μM or 10 μM; 10 µM forskolin
T1 construct: expressed in transfected cells; host or cells: HEK293A, transient
T1 sequence (P21453 whole entry, species assumed): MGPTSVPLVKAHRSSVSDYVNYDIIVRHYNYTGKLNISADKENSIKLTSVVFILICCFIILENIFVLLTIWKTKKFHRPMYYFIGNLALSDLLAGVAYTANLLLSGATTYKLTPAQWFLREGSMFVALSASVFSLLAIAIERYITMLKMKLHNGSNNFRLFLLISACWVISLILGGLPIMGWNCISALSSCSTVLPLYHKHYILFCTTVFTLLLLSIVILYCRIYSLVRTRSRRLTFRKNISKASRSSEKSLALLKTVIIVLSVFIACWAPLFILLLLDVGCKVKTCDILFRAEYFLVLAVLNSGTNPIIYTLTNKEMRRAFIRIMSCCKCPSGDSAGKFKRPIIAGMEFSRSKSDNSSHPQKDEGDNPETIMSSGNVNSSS
Procedure: (§1) Next, we used the classical cAMP GloSensor technology to assess the target selectivity profile of 33. […] In addition, we tested the effects of 33 on cAMP changes mediated by agonist-stimulated GPCRs phylogenetically close to GPR3 and coupling to Gs or Gi/o proteins.
(§2) BRET-based GPCR conformational sensor experiments
(§3) Cells expressing the conformational GPCR biosensors were grown for 24 h (stable cells) or 48 h (transiently transfected cells) in white 96-well plates and washed with 100 µl of HBSS. After washing, cells were incubated for 2 minutes with a 1/1000 solution of the furimazine stock solution (Promega; cat. no. N1662). Three baseline BRET reads were recorded and averaged prior to the addition of serial dilutions of ligands or veh icle control and subsequent BRET reads. […] BRE T donor emission was quantified with a 470/80 nm monochromator. […] Experiments were carried out using a CLARIOstar plate reader.
(§4) FRET- and BRET-based measurements of cAMP levels and Gs dissociation/reassociation Transfected cells grown in black 96-well plates were washed twice with 100 µl of HBSS 48 h after transfection and incubated with HBSS. […] Three baseline FRET/BRET reads were recorded and averaged prior to the addition of serial dilutions of ligands or vehicle control and sub-sequent FRET/BRET reads. […] FRET donor emission was quantified with a 480/10 nm filter. […]
(§5) Luminescence measurement using the cAMP GloSensor™ 22F […]

[1] = molecular target: T2, adenosine A2B receptor (A2BR) (Homo sapiens, UniProt P29275); assay: cAMP GloSensor 22F, agonist-stimulated A2BR; format: cell-based; conditions: preincubation with 100 μM or 10 μM
T2 construct: expressed in transfected cells; host or cells: HEK293A, transient
T2 sequence (P29275 1-332): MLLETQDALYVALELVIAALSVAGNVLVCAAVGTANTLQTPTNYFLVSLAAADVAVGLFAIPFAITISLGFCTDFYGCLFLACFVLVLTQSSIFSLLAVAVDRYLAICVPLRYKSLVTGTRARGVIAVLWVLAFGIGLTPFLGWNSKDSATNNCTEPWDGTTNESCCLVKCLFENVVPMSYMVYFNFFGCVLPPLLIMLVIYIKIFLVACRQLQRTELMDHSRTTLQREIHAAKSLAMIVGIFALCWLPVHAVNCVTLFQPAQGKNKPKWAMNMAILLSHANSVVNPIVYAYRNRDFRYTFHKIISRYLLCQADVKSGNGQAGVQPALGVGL
Procedure: as §1, §2, §3, §4, §5

N=c1n(Cc2ccccc2)c2ccccc2n1CC1CC1 [compound 33]
effect on agonist-induced cAMP change mediated by S1PR1 (S1P receptor 1 (S1PR1)): neither 100 μM nor 10 μM 33 significantly altered
effect on agonist-induced cAMP change mediated by A2BR [1]: neither 100 μM nor 10 μM 33 significantly altered
